Experimental findings from US9233946B2, “Sulfonamide compounds” (KANCERA AB, priority 2010, dated 2016) are described below.

This test concerns PANC-1 cells. The test is described as follows: Quantification of F-2,6-P2 in PANC-1 cells. The format is cell-based. Particulars: Homo sapiens, PANC-1; read-out: IC50 based on quantification of F-2,6-P2. In a few lines:
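Endogenous PFKFB3/PFKFB4 activity in PANC-1 cells, 18 h serum/glucose starvation in glucose-free DMEM/F12 with 0.25% FBS, then 1 h compound preincubation (50 and 10 μM, or dose response from 50 μM; 0.5% DMSO) at 37 °C. Glucose stimulation for 2 h, NaOH lysis, F-2,6-P2 quantified by Van Schaftingen coupled enzymatic assay against in-house standard.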

The term IC50 denotes the concentration that inhibits the measured activity by half. As to `Cc1c(S(=O)(=O)Nc2cccc(C(=O)O)c2)sc2ccc(Cl)cc12` [Example 38, 3-{[(5-Chloro-3-methyl-1-benzothien-2-yl)sulfonyl]amino}benzoic acid], the half-inhibitory concentration (IC50) came to 10.1 µM.
Under `Cc1c(S(=O)(=O)Nc2cccc(C(=O)O)c2)sc2ccc(C(C)C)cc12` [Example 5, 3-{[(5-Isopropyl-3-methyl-1-benzothien-2-yl)sulfonyl]amino}benzoic acid] stands 2.3 µM.
